# Data reported in article PMC10053807, “Natural Lipid Extracts as an Artificial Membrane for Drug Permeability Assay: In Vitro and In Silico Characterization” (Pharmaceutics, 2023).
# Experiments:
# [1] = PAMPA permeability, comparison across the six natural lipid extract membranes; conditions: for total-polar permeability comparison: heart, liver and brain extracts, Figure 10A–C; for dependence of permeability on the lipid extract (PCA biplot): compounds near the abscissa of the PCA biplot, Figure 12
# [2] = PAMPA permeability, liver polar lipid extract (LPLE) membrane; conditions: for Papp at 4 h, 100 μM: bovine, PAMPA
# [3] = PAMPA permeability, liver total lipid extract (LTLE) membrane; conditions: for Mean logPe / Mean Pe: Liver total lipid extract membrane, n=3; for Papp at 4 h, 100 μM: bovine, PAMPA, pH 7.4; for Mean Pe: * = not detected at acceptor side, value calculated from limit of detection
# [4] = PAMPA permeability, heart total lipid extract (HTLE) membrane; conditions: for Mean logPe / Papp at 4 h, 100 μM / Mean Pe: Heart total lipid extract membrane, n=3; for Papp at 4 h, 100 μM: bovine, PAMPA; for PAMPA permeability on HTLE: pH 7.4, 4 h, 37 °C, in words (PCA biplot, Figure 11B)
# [5] = PAMPA permeability, brain total lipid extract (BTLE) membrane; conditions: for Mean logPe / Mean Pe: Brain total lipid extract membrane, n=3; for Mean Pe: * = not detected at acceptor side, value calculated from limit of detection; for Papp at 4 h, 100 μM: pig, PAMPA, pH 7.4
# [6] = PAMPA permeability, brain polar lipid extract (BPLE) membrane; conditions: for Papp at 4 h, 100 μM: pig, PAMPA; for Mean Pe: * = not detected at acceptor side, value calculated from limit of detection
# [7] = PAMPA permeability, heart polar lipid extract (HPLE) membrane; conditions: for Mean logPe / Mean Pe: Heart Polar lipid extract membrane, n=3; for Papp at 4 h, 100 μM: bovine, PAMPA, pH 7.4; for Mean Pe: * = not detected at acceptor side, value calculated from limit of detection
# in vitro = conditions: bovine, PAMPA, pH 7.4
# [8] = pH 7.4, Mean Pe, n=3, * = not detected at acceptor side, value calculated from limit of detection
# [9] = pH 7.4, Mean Pe, * = not detected at acceptor side, value calculated from limit of detection
# [10] = Brain Polar lipid extract membrane, n=3
# [11] = * = not detected at acceptor side, value calculated from limit of detection
# [12] = n=3, * = not detected at acceptor side, value calculated from limit of detection
Compound,"Papp at 4 h, 100 μM [2, 8]",Mean logPe [3],"Papp at 4 h, 100 μM [3]",Mean logPe [4],"Papp at 4 h, 100 μM [4, 9]",Mean logPe [5],Mean Pe [5],Mean logPe ([2]; n=3),"Mean logPe [6, 10]","Papp at 4 h, 100 μM ([6]; pH 7.4)",Mean logPe [7],"Papp at 4 h, 100 μM [7]","Papp at 4 h, 100 μM [5]",Mean Pe [3],other results
O=C1CC2(CCCC2)CC(=O)N1CCCCN1CCN(c2ncccn2)CC1 [buspirone],57 ×10⁻⁶ cm/s,–,–,–,–,–,–,–,–,–,–,–,–,–,total-polar permeability comparison [1]: higher permeability in polar lipids
CCCCOc1cc(C(=O)NCCN(CC)CC)c2ccccc2n1 [dibucaine],39.9 ×10⁻⁶ cm/s,-4.56,28.6 ×10⁻⁶ cm/s,-4.44,37.3 ×10⁻⁶ cm/s,-4.40,40.24 10-6 cm/s,-4.40,-4.19,65 ×10⁻⁶ cm/s,-4.31,48.6 ×10⁻⁶ cm/s,–,–,total-polar permeability comparison [1]: higher permeability in polar lipids; PAMPA permeability on HTLE [4]: high permeability
CC(C)C(=O)Nc1ccc([N+](=O)[O-])c(C(F)(F)F)c1 [flutamide],29.4 ×10⁻⁶ cm/s,-4.32,47.9 ×10⁻⁶ cm/s,-4.40,41.8 ×10⁻⁶ cm/s,-4.45,–,-4.54,-4.24,58.1 ×10⁻⁶ cm/s,-4.30,50.3 ×10⁻⁶ cm/s,35.5 ×10⁻⁶ cm/s,–,"total-polar permeability comparison, brain extracts ([1]; BTLE vs BPLE): higher in the brain polar extract; total-polar permeability comparison, liver extracts ([1]; LTLE vs LPLE): higher in the liver total extract; PAMPA permeability on HTLE [4]: high permeability"
CC(C)Cc1ccc(C(C)C(=O)O)cc1 (centres unmarked) [ibuprofen],25.1 ×10⁻⁶ cm/s,-4.54,29 ×10⁻⁶ cm/s,-4.76,17.3 ×10⁻⁶ cm/s,-5.05,–,-4.61,-5.12,7.64 ×10⁻⁶ cm/s,-4.62,24.2 ×10⁻⁶ cm/s,8.97 ×10⁻⁶ cm/s,–,dependence of permeability on the lipid extract (PCA biplot) [1]: independent of the investigated lipids
CC1Cc2ccccc2N1NC(=O)c1ccc(Cl)c(S(N)(=O)=O)c1 (centres unmarked) [indapamide],16.9 ×10⁻⁶ cm/s,-4.61,24.5 ×10⁻⁶ cm/s,-5.69,2.04 ×10⁻⁶ cm/s,-5.29,–,-4.77,-5.19,6.6 ×10⁻⁶ cm/s,-5.28,5.37 ×10⁻⁶ cm/s,5.22 ×10⁻⁶ cm/s,–,–
CC(CCc1ccccc1)NCC(O)c1ccc(O)c(C(N)=O)c1 (centres unmarked) [labetalol],19 ×10⁻⁶ cm/s,-4.42,38 ×10⁻⁶ cm/s,-5.27,5.37 ×10⁻⁶ cm/s,-4.83,–,-4.72,-4.65,22.2 ×10⁻⁶ cm/s,-5.08,8.38 ×10⁻⁶ cm/s,15.1 ×10⁻⁶ cm/s,–,–
Cc1c(OCC(F)(F)F)ccnc1C[S+]([O-])c1nc2ccccc2[nH]1 (centres unmarked) [lansoprazole],24.4 ×10⁻⁶ cm/s,-4.21,61.9 ×10⁻⁶ cm/s,-4.67,21.9 ×10⁻⁶ cm/s,-4.54,–,-4.62,-4.58,26.6 ×10⁻⁶ cm/s,-4.74,18 ×10⁻⁶ cm/s,28.6 ×10⁻⁶ cm/s,–,dependence of permeability on the lipid extract (PCA biplot) [1]: independent of the investigated lipids
COc1ccc2c(c1)N(C[C@H](C)CN(C)C)c1ccccc1S2 [levomepromazine],28.5 ×10⁻⁶ cm/s,–,< 3.72 ×10⁻⁶ cm/s,-4.90,13.2 ×10⁻⁶ cm/s,-4.89,–,–,-4.83,15.1 ×10⁻⁶ cm/s,-5.20,6.57 ×10⁻⁶ cm/s,15.8 ×10⁻⁶ cm/s,"< 3,7* 10-6 cm/s","total-polar permeability comparison [1]: heart total-liver polar; Papp at 4 h, 100 μM ([2]; pH 7.4, Mean logPe, n=3): 23.4 ×10⁻⁶ cm/s"
NC(=O)Cc1cccc(C(=O)c2ccccc2)c1N [nepafenac],38.6 ×10⁻⁶ cm/s,-4.14,72.9 ×10⁻⁶ cm/s,-4.73,18.8 ×10⁻⁶ cm/s,-4.61,–,-4.44,-4.67,21.3 ×10⁻⁶ cm/s,-4.59,25.9 ×10⁻⁶ cm/s,24.4 ×10⁻⁶ cm/s,–,–
O=C1CN=C(c2ccccc2)c2cc([N+](=O)[O-])ccc2N1 [nitrazepam],–,-4.26,–,-4.46,–,-4.47,–,-4.60,-4.67,21.5 ×10⁻⁶ cm/s,-4.54,–,34.1 ×10⁻⁶ cm/s,–,total-polar permeability comparison [1]: higher permeability in total lipids
CCn1cc(C(=O)O)c(=O)c2cc(F)c(N3CCNCC3)cc21 [norfloxacin],7.17 ×10⁻⁶ cm/s,–,< 0.501 ×10⁻⁶ cm/s,–,–,–,"< 0,49* 10-6 cm/s",–,< -6.30,–,-5.80,1.59 ×10⁻⁶ cm/s,< 0.49 ×10⁻⁶ cm/s,"< 0,5* 10-6 cm/s","Mean Pe [4, 11]: < 0,54* 10-6 cm/s; Papp at 4 h, 100 μM ([4]; pH 7.4, Mean logPe): < 0.537 ×10⁻⁶ cm/s; Papp at 4 h, 100 μM ([2]; pH 7.4, Mean logPe, n=3): 5.25 ×10⁻⁶ cm/s; Mean Pe [6, 10]: < 0,50* 10-6 cm/s"
O=C1NC(=O)C(c2ccccc2)(c2ccccc2)N1 [phenytoin],34.6 ×10⁻⁶ cm/s,-4.35,44.7 ×10⁻⁶ cm/s,-4.84,14.7 ×10⁻⁶ cm/s,-4.46,–,-4.46,-4.57,27.2 ×10⁻⁶ cm/s,-4.42,38.4 ×10⁻⁶ cm/s,35.3 ×10⁻⁶ cm/s,–,dependence of permeability on the lipid extract (PCA biplot) [1]: independent of the investigated lipids
N=C(N)c1ccc(OCCCOc2ccc(C(=N)N)cc2)cc1 [propamidine],–,< -6.12,–,–,–,< -6.13,"< 0,73* 10-6 cm/s",< -6.12,< -6.12,–,–,< 0.741 ×10⁻⁶ cm/s,–,"< 0,76* 10-6 cm/s","Mean Pe [4, 11]: < 0,76* 10-6 cm/s; Papp at 4 h, 100 μM ([4]; pH 7.4, Mean logPe): < 0.759 ×10⁻⁶ cm/s; Mean Pe [2, 12]: < 0,76* 10-6 cm/s; Mean Pe [6, 10]: < 0,76* 10-6 cm/s; Mean Pe [7]: < 0,73* 10-6 cm/s"
CC(C)c1nc(N(C)S(C)(=O)=O)nc(-c2ccc(F)cc2)c1/C=C/[C@@H](O)C[C@@H](O)CC(=O)O [rosuvastatin],–,< -6.32,–,–,–,< -6.33,"< 0,46* 10-6 cm/s",< -6.32,< -6.32,–,–,< 0.468 ×10⁻⁶ cm/s,–,"< 0,48* 10-6 cm/s","Mean Pe [4, 11]: < 0,48* 10-6 cm/s; Papp at 4 h, 100 μM ([4]; pH 7.4, Mean logPe): < 0.479 ×10⁻⁶ cm/s; Mean Pe [2, 12]: < 0,48* 10-6 cm/s; Mean Pe [6, 10]: < 0,48* 10-6 cm/s; Mean Pe [7]: < 0,46* 10-6 cm/s"
CC(=O)CC(c1ccccc1)c1c(O)c2ccccc2oc1=O (centres unmarked) [warfarin],7.48 ×10⁻⁶ cm/s,-4.86,13.9 ×10⁻⁶ cm/s,–,0.29 ×10⁻⁶ cm/s,-5.62,–,-5.14,–,0.47 ×10⁻⁶ cm/s,-5.50,3.25 ×10⁻⁶ cm/s,2.43 ×10⁻⁶ cm/s,–,"Papp at 4 h, 100 μM (in vitro): 0.891 ×10⁻⁶ cm/s; PAMPA permeability on HTLE [4]: low; Papp at 4 h, 100 μM ([6]; pH 7.4, Mean logPe, Brain Polar lipid extract membrane, n=3): 1.41 ×10⁻⁶ cm/s"
ondansetron,–,–,–,-5.01,–,-4.63,23.49 10-6 cm/s,-4.59,-4.71,–,-4.86,–,–,57.25 10-6 cm/s,"Mean Pe [4, 11]: 9.85 10-6 cm/s; Mean Pe [2, 12]: 25.69 10-6 cm/s; Mean Pe [6, 10]: 19.60 10-6 cm/s; Mean Pe [7]: 13.69 10-6 cm/s"
